Like-named read-outs stand apart in the source and are kept apart here.
Tests used:
[1] = tested on: human breast cancer cell lines; conditions: same cell lines and treatment conditions; read-out: IC50 for human breast cancer cell growth (range over cell lines); cited from earlier work
[2] = tested on: cGMP PDE in SKBr3 whole cell lysate; experiment: cGMP hydrolysis in whole cell lysate, IMAP assay; type: biochemical, human; conditions: 100 µM
Protocol: (§1) PDE activity was measured using the Molecular Devices (San Diego, CA, USA) IMAP fluorescence polarization assay as previously described. Recombinant PDE5 was purchased from BPS Biosciences (San Diego, CA, USA).

[3] = tested on: cGMP PDE in MDA-MB-231 whole cell lysate; experiment: cGMP hydrolysis in whole cell lysate, IMAP assay; type: biochemical, human; conditions: 100 µM
Protocol: as §1

[4] = target: T1, purified ovine COX-2 (Ovis aries, UniProt P79208); experiment: COX-2 colorimetric activity assay (Cayman kit); type: biochemical; conditions: purified enzyme
T1 construct: purchased Cayman Chemical Company
T1 sequence (P79208 17-603): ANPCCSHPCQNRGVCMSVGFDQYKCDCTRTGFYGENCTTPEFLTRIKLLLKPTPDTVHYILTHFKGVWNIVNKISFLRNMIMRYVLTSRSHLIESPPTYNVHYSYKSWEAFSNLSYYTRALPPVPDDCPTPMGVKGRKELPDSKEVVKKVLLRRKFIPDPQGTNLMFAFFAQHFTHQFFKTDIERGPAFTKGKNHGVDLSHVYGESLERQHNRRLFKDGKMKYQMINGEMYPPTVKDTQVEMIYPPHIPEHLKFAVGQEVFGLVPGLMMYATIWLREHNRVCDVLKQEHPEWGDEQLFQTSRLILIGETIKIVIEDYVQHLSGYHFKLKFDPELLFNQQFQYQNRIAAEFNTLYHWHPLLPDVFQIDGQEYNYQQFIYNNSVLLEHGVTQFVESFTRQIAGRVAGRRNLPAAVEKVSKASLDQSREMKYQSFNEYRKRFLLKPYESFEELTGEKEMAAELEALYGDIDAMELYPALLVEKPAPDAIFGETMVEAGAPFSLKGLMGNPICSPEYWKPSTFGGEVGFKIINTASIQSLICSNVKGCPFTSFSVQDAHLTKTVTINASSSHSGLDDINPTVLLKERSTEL
Protocol: (§2) COX-1 and COX-2 activities were measured using purified ovine COX-1 and COX-2 with colorimetric assay kits obtained from Cayman Chemical Company (Ann Arbor, MI, USA) according to the manufacturer’s protocol. After the addition of arachidonic acid and incubation at 25 °C for 5 min, COX activity was determined by measuring absorbance at 590 nm.

[5] = tested on: MDA-MB-231 breast tumor cells; experiment: 3D HuBiogel mini-tumor growth, calcein-AM live imaging; type: cell-based, human; conditions: MDA-MB-231, calcein AM live imaging
Protocol: Viable mini-tumors (1 mm in size) of MDA-MB-231 breast tumor cells were generated using the three-dimensional human Biogel culture system from Vivo Biosciences (Birmingham, AL, USA). Accordingly, 20,000 cells were mixed with HuBiogel beads and cultivated in rotary bioreactors for 3 days. Live cell imaging was performed using Calcein- acetoxymethyl (calcein-AM) staining.

[6] = tested on: Hs578t, MDA-MB-231, SKBr3, and ZR75-1 cells; experiment: Caspase 3/7 Glo assay; type: cell-based, human; conditions: 6 h treatment; range over Hs578t, MDA-MB-231, SKBr3, ZR75-1
Protocol: (§3) Caspase activation was measured using Promega’s Caspase 3/7 Glo Assay following the manufacturer’s specifications. First, 96-well tissue culture treated microtiter plates were seeded at a density of 10,000 cells per well and incubated at 37 °C for 24 h prior to drug treatment. After treatment, plates were incubated 6 h prior to assay.

[7] = tested on: MCF7 cells; experiment: Caspase 3/7 Glo assay; type: cell-based, human; conditions: MCF7, 6 h treatment
Protocol: as §3

[8] = tested on: Hs578t; experiment: Growth inhibition, Cell Titer Glo; type: cell-based; conditions: Homo sapiens, Hs-578T, 72 h, 2D
Protocol: (§4) The human breast tumor cell lines Hs578t, MCF7, MDA-MB-231, SKBr3, and ZR75-1 were obtained from ATCC (Manassas, VA, USA) and grown in RPMI 1640 media containing L-glutamine, 5% fetal bovine serum, and penicillin/streptomycin at 37 °C in a humidified atmosphere with 5% CO2.
(§5) Growth inhibition was measured using the Promega (Madison, WI, USA) Cell Titer Glo Assay following manufacturer’s specifications. First, 96-well tissue culture treated microtiter plates were seeded at a density of 5000 cells per well and incubated at 37 °C for 24 h prior to drug treatment. After treatment, plates were incubated 72 h prior to assay.

[9] = tested on: SKBr3; experiment: Growth inhibition, Cell Titer Glo; type: cell-based; conditions: Homo sapiens, SK-BR-3; SKBr3, 72 h, 2D
Protocol: as §4, §5

[10] = tested on: MCF7; experiment: Growth inhibition, Cell Titer Glo; type: cell-based; conditions: Homo sapiens; MCF7, 72 h, 2D
Protocol: as §4, §5

[11] = tested on: MDA-MB-231; experiment: Growth inhibition, Cell Titer Glo; type: cell-based; conditions: Homo sapiens; MDA-MB-231, 72 h, 2D
Protocol: as §4, §5

[12] = tested on: ZR75-1; experiment: Growth inhibition, Cell Titer Glo; type: cell-based; conditions: Homo sapiens, ZR-75-1; ZR75-1, 72 h, 2D
Protocol: as §4, §5

[13] = tested on: SKBr3 cells; experiment: APO-BrdU TUNEL assay (DNA fragmentation), flow cytometry; type: cell-based, human; conditions: 24 h
Protocol: A terminal deoxynucleotidyl transferase dUTP nick end labeling (TUNEL) assay was performed in SKBr3 cells using the Invitrogen APO-BrdU TUNEL Assay (Waltham, MA, USA) according to the manufacturer’s protocol, and fluorescence was measured using a Guava EasyCyte (Hayward, CA, USA) flow cytometry system. First, 10 cm tissue culture treated dishes were seeded at a density of 2,000,000 cells per dish and incubated at […] for 24 h prior to drug treatment. After treatment, cells were incubated for 24 h and then collected and fixed with 4% paraformaldehyde for 15 min on ice, washed with phosphate buffered saline (PBS), and incubated in 70% ethanol at −20 °C for 4–24 h prior to assay.

[14] = tested on: human breast cancer cell lines; experiment: Growth inhibition, Cell Titer Glo, panel of human breast cancer cell lines; type: cell-based
Protocol: as §4, §5

[15] = target: T2, recombinant PDE5 (Homo sapiens, UniProt O76074); experiment: PDE activity, IMAP fluorescence polarization assay; type: biochemical
T2 construct: purchased BPS Biosciences
Protocol: as §1

[16] = tested on: MDA-MB-231 breast cancer cells; experiment: Western blotting of phospho-VASP Ser239, cyclin D1, survivin; type: cell-based, human; conditions: 7.5 µM
Protocol: All antibodies were obtained from Cell Signaling Technologies (Danvers, MA, USA). Cells were harvested and vortexed in ice cold lysis buffer containing 20 mM tris acetate, 5mM magnesium acetate, 1 mM ethylene glycol-bis(β-aminoethyl ether)-N,N,N′,N′-tetraacetic acid (EGTA), 0.8% Triton X-100, 50 mM sodium fluoride, 1.25 mM sodium vanadate, and protease inhibitor cocktail at pH 7.4. Lysates were centrifuged at 10,000× g for 10 min at 4 °C. Protein contents were determined using the Thermo/Pierce (Waltham, MA, USA) bicinchoninic acid (BCA) protein assay following the manufacturer’s specifications.
Proteins (15 µg) from lysed cells were separated by sodium dodecyl sulfate polyacrylamide gel electrophoresis (SDS-PAGE) in a 12% polyacrylamide gel followed by electrophoretic transfer to a nitrocellulose membrane. The membranes were blocked with 5% nonfat dry milk in tris-buffered saline (TBS) containing 0.05% Tween-20. Membranes were incubated with primary antibody at 4 °C overnight followed by incubation with secondary antibody conjugated to horseradish peroxidase for 2 h at room temperature. Protein bands were visualized using Millipore Immobilon enhanced chemiluminescence (ECL) substrate on HyBlot CL autoradiography film.

[17] = tested on: Hs578t cells; experiment: Tcf transcriptional activity, Super8XTOPFlash luciferase reporter; type: cell-based, human; conditions: 24 h
Protocol: Tcf transcriptional activity was measured in Hs578t cells. Cells were seeded in 24-well tissue culture treated plates. After 24 h of incubation, cells were transiently transfected with 0.1 µg of Promega β-galactosidase-expressing vector and 0.1 µg of Super8XTOPFlash construct, which was kindly provided by Randall T. Moon from the University of Washington (Seattle, WA, USA). After 24 h of transfection, cells were treated with compound and incubated for an additional 24 h. Cells were lysed, and luciferase and β-galactosidase activities were measured using assay systems from Promega (Madison, WI, USA), following the manufacturer’s instructions. Luciferase activity was normalized to β-galactosidase activity.

[18] = tested on: MDA-MB-231 cells; experiment: Intracellular cGMP levels; type: cell-based, human; conditions: intact MDA-MB-231, 30 min, concentrations comparable with growth IC50
Protocol: Intracellular levels of cGMP were measured in MDA-MB-231 cells after 30 min of drug treatment, as previously described.

[19] = Plasma levels after dietary feeding; type: in vivo, Sprague-Dawley rats; conditions: diet containing 1000, 2000, or 3000 ppm
[20] = tested on: MNU-induced mammary tumors; experiment: MNU model of mammary carcinogenesis; type: in vivo; conditions: for reduction in tumor incidence compared to vehicle control / reduction in tumor multiplicity compared to vehicle control: 126 days after MNU
Protocol: In vivo efficacy was evaluated using the N-methyl-N-nitrosourea (MNU) model of mammary carcinogenesis, as previously described. Briefly, female Sprague-Dawley rats were obtained from Envigo (formerly Harlan Sprague-Dawley, Inc.) (Indianapolis, IN, USA) at 28 days of age and placed on a Teklad 4% fat diet on the day of arrival. Within one week of arrival, rats were randomly assigned to groups (15 rats/group), ear marked for identification, and weighed to ensure statistically similar average body weights per group. At 50 days of age, rats received one IV injection of MNU (75 mg/kg) via the jugular vein. Rats were administered 800 or 1200 ppm of SSA or vehicle control in diet beginning 3 days after MNU administration. Rats were weighed once per week, palpated for mammary tumors twice per week, and checked daily for signs of toxicity. The study was terminated at 126 days after MNU administration. All mammary tumors were weighed when removed at necropsy, weighed, and processed for histological classification and analysis. The protocol used for this study was approved by the University of Alabama at Birmingham (UAB) IACUC where the study was performed.

[21] = target: T3, purified ovine COX-1 (Ovis aries, UniProt P05979); experiment: COX-1 colorimetric activity assay (Cayman kit); type: biochemical
T3 construct: purchased Cayman Chemical Company
T3 sequence (P05979 25-600): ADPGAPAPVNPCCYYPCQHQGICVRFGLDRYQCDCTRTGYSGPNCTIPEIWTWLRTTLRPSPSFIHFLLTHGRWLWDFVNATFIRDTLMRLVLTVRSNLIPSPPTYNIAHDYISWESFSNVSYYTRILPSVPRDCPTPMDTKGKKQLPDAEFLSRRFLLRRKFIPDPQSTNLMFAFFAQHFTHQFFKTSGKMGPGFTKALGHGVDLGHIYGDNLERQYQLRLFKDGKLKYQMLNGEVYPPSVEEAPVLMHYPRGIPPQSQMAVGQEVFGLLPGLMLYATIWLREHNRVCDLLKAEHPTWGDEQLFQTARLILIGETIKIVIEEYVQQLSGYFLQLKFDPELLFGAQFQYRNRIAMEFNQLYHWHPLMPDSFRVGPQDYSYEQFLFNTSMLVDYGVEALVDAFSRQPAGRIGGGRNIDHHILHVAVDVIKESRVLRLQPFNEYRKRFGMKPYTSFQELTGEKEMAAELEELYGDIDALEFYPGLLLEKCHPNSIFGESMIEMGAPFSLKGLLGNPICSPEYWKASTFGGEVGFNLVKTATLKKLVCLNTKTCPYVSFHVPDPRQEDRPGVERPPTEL
Protocol: as §2

CSc1ccc(/C=C2/C(C)=C(CC(=O)O)c3cc(F)ccc32)cc1 [SS, sulindac sulfide]
IC50 [1]: 58.8 to 83.7 µM

CSc1ccc(/C=C2/C(C)=C(CC(=O)NCCN(C)C)c3cc(F)ccc32)cc1 [SSA, sulindac sulfide amide]
inhibition of cGMP hydrolysis [2]: 65%
inhibition of cGMP hydrolysis [3]: 38%
IC50 [4]: > 200 µM
cell growth in 3D HuBiogel [5]: markedly reduced
increase in activity of caspases 3 and 7 [6]: 2 to 6 fold
caspase activation [7]: no increase
IC50 [8]: 7 µM
IC50 [9]: 3.9 µM
IC50 [10]: 7 µM
IC50 [11]: 6.5 µM
IC50 [12]: 7.1 µM
TUNEL Positive ([13]; 10 μM): 2%
TUNEL Positive ([13]; 25 μM): 59%
TUNEL Positive ([13]; 50 μM): 86%
IC50 ([14]; Homo sapiens, 72 h treatment, 2D growth, read-out: IC50 for human breast cancer cell growth (range over cell lines)): 3.9 to 7.1 µM
fold more potent than SS in inhibiting growth and inducing apoptosis in breast cancer cells ([14]; vs SS): 10 fold
inhibition at 25 µM [15]: 55%
VASP phosphorylation at serine 239 (PKG activity marker) ([16]; MDA-MB-231): significantly increased
time of peak VASP phosphorylation ([16]; MDA-MB-231): 1 h
cyclin D1 protein levels ([16]; after 1 h): decreased appreciably
survivin protein levels ([16]; after 7 h): decreased appreciably
reduction of Tcf transcriptional activity ([17]; 5 µM): 14%
reduction of Tcf transcriptional activity ([17]; 20 µM): 60%
intracellular cGMP levels [18]: increased intracellular cGMP levels
plasma levels [19]: exceed the concentrations necessary for SSA to activate cGMP signaling and inhibit growth in breast cancer cells in vitro
change in body weight ([20]; 800 and 1200 ppm in diet, 126-day study): Neither dose of SSA resulted in a significant change
reduction in tumor incidence compared to vehicle control ([20]; 800 ppm in diet): 22%
reduction in tumor multiplicity compared to vehicle control ([20]; 800 ppm in diet): 31%
reduction in tumor incidence compared to vehicle control ([20]; 1200 ppm in diet): 43%
reduction in tumor multiplicity compared to vehicle control ([20]; 1200 ppm in diet): 62%
reduction in the incidence of tumors ([20]; abstract, dose not stated): 57%
reduction in the multiplicity of tumors ([20]; abstract, dose not stated): 62%
toxicity observed in rats ([20]; long-term dietary treatment): no discernable toxicity
IC50 ([21]; purified enzyme): 81.6 µM
fold less potent than sulindac sulfide (SS) in inhibiting COX-1 ([21]; vs SS): 68 fold

Reference: PMC9913705, “Novel Non-Cyclooxygenase Inhibitory Derivative of Sulindac Inhibits Breast Cancer Cell Growth In Vitro and Reduces Mammary Tumorigenesis in Rats” (Cancers, 2023)
